pIC50: −log10 of the molar value.
Legend:
[1] = Percent remaining after incubation with NADPH in S9 cell was determined; assay type: ADME, cell-based
[2] = biological target: T1, Vascular endothelial growth factor receptor 2 (Homo sapiens, UniProt P35968); assay: Inhibition of Vascular endothelial growth factor receptor 2(KDR) with DTT (dithiothreitol)
[3] = biological target: T1, Vascular endothelial growth factor receptor 2; assay: Inhibition of Vascular endothelial growth factor receptor 2(KDR) without DTT (dithiothreitol)

T1 sequence (P35968 whole entry): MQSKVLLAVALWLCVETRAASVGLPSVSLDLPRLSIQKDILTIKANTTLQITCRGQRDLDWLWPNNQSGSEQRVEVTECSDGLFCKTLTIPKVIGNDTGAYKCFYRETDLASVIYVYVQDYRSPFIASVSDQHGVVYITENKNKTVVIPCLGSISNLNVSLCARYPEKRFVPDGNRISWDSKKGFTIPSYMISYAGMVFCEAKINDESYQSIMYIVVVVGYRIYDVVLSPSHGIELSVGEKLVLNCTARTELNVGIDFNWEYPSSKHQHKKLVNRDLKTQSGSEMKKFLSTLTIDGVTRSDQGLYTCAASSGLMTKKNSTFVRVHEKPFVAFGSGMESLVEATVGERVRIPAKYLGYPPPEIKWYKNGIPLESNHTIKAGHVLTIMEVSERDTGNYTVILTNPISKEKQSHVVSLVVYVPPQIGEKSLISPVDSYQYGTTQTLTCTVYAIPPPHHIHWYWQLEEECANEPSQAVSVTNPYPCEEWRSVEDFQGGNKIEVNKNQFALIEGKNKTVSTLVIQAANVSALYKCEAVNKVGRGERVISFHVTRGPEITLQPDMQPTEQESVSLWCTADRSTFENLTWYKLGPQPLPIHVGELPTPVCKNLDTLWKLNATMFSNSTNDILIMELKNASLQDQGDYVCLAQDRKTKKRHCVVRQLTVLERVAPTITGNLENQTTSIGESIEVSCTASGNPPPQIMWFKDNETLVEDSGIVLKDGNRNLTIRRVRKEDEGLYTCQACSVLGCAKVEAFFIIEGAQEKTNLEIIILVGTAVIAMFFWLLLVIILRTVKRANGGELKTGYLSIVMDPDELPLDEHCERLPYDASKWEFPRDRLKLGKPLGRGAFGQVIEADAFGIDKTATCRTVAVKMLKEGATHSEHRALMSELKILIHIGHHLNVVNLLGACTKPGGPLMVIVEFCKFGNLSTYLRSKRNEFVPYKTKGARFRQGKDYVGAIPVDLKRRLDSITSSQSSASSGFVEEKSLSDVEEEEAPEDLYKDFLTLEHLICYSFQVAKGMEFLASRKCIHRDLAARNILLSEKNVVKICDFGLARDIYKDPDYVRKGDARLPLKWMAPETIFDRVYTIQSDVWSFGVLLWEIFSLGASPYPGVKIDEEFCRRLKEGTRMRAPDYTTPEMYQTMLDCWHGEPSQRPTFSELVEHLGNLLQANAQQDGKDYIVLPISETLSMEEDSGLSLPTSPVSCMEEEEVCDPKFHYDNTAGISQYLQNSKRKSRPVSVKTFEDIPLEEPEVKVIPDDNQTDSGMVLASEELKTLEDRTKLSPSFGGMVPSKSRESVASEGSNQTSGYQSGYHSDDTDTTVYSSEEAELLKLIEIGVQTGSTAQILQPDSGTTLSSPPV

Row | SMILES | Remaining activity [1] [%] | pIC50 [2] | pIC50 [3]
1 | Cc1[nH]c(/C=C2\C(=O)NN=C2c2cnccn2)c(C)c1CN(C)C | 18 |  | 
2 | CCN(CC)CCc1c(C)[nH]c(/C=C2\C(=O)NN=C2C2CC2)c1C | 80 | 6.08 | 5.60
3 | O=C1NN=C(c2cnccn2)/C1=C/c1cc2ccccc2[nH]1 |  | 4.40 | 6.39
4 | O=C1Nc2ccccc2S/C1=C\c1c[nH]c2c(C(=O)N3CCC(N4CCCCC4)CC3)cccc12 |  | 6.77 | 6.14
5 | O=C1NN=C(c2cnccn2)/C1=C/c1[nH]c2ccccc2c1-c1ccccc1 |  | 6.33 | 7.70

Now from value to molecule:

Row | Remaining activity [1] [%] | pIC50 [2] | pIC50 [3] | SMILES
6 |  | 6.80 | 6.54 | O=C1Nc2ccccc2S/C1=C\c1c[nH]c2cc(OCCN3CCOCC3)ccc12
7 |  | 6.85 | 7.22 | Cc1c(/C=C2\C(=O)NN=C2c2cnccn2)[nH]c2ccccc12
8 | 72 | 7.10 | 6.68 | CCN(CC)CCc1c(C)[nH]c(/C=C2\C(=O)NN=C2c2cnccn2)c1C
